This is an account of results in patent US10793601B2, “Therapeutic spalt-like transcription factor 4 (SALL4) peptide” (National University of Singapore, priority 2016, dated 2020).

Where “and” joins values, the source holds several entries; their conditions need not be identical. Equal entries are not always repeated. Ends that are not written are not given here.

In assay [1] the test system is SNU398 tumor xenografts. The assay can be described thus: SNU398 xenograft in NSG mice. Format: in vivo, NOD/SCID/gamma mice. The protocol:
FIGS. 7A-7E. […] FIG. 7A: 7.2×10^5 SNU398 cells were inoculated subcutaneously into the right flank of NOD/SCID/gamma mice (NSG mice). Tumors were allowed to grow for one week before peptide treatments were administered every alternate day for a total of five injections. FIG. 7B: Tumor growth was documented by plotting tumor volume against time. […] FIG. 7C: Relative size of tumors resected on day 20. FIG. 7D: tumor weight was determined (n=5). […] FIG. 7E: Total RNA was isolated from the resected tumors and expression of PTEN was measured using real-time PCR.
FIGS. 9A-9E. […] FIG. 9A: PEN-FFW treated SNU398 tumor xenografts were compared to that of Sorafenib treated xenografts. FIG. 9B: PEN-FFW treated PLC8024 tumor xenografts were compared to that of Sorafenib treated xenografts. Mice body weight was measured to access toxicity of various peptides. FIG. 9C: Body weight of mice at day 17. FIG. 9D: Differences of body weight compared to day 0 (As indicated by the arrow in far left of FIG. 7A). FIG. 9E: Body weight of mice at day 19th in the experiment shown in FIG. 9A comparing effect of Sorafenib and PEN-FFW. Data represent mean±s.d. (n=5).
All mice were treated in accordance with Responsible Care and Use of Laboratory animals. In the SNU398 in vivo studies, 6-8-week-old female C.B-17 severe combined immunodeficient (SCID) mice (NSG) were inoculated s.c. into the flank with 7.2×10^5 cells in 2:1 PBS/Matrigel (BD Biosciences). The tumours were then allowed to develop to the size of 50-70 mm3 before intraperitoneal injections of the different peptides were given at two to three-day intervals for a total of 5 injections. Mice were randomly grouped in sets of six and treated with PEN (penetratin control), PEN-MUT (mutant control), PEN-WT (wild type control) and PEN-FFW (peptide 47). Tumor volumes were measured every 5 days and tumor weight were measured at the end point. For PEN control, 22.5 mg/kg were given; for PEN-MUT, PEN-WT and PEN-FFW, 35.6 mg/kg, 37 mg/kg and 36 mg/kg were given respectively to the mice according to their body weight Tumor measurements were taken twice weekly using Vernier calipers. Tumor volume was estimated using the following formula: V=0.5×width×width×length. When tumors approached ˜50 mm3, mice were randomized into groups of 5 animals each and received peptides treatment three times weekly by i.p. injection. All statistical analysis was done using a one-way ANOVA and Student's T-test.

Assay [2] deals with PLC8024 tumor xenografts. Description: PLC8024 xenograft (Sorafenib-resistant HCC). Format: in vivo, mice. The procedure: FIGS. 9A-9E. Clinical significance of PEN-FFW compared to Sorafenib. FIG. 9A: PEN-FFW treated SNU398 tumor xenografts were compared to that of Sorafenib treated xenografts. FIG. 9B: PEN-FFW treated PLC8024 tumor xenografts were compared to that of Sorafenib treated xenografts. Mice body weight was measured to access toxicity of various peptides. FIG. 9C: Body weight of mice at day 17. FIG. 9D: Differences of body weight compared to day 0 (As indicated by the arrow in far left of FIG. 7A). FIG. 9E: Body weight of mice at day 19th in the experiment shown in FIG. 9A comparing effect of Sorafenib and PEN-FFW. Data represent mean±s.d. (n=5).
Clinical significance of PEN-FFW was studied in vivo by benchmarking against current therapy using Sorafenib. PEN-FFW treated SNU398 tumor xenografts were compared to that of Sorafenib treated xenografts (FIG. 9A). […] Potential therapeutic effect of PEN-FFW in HCC patients that are refractory to Sorafenib treatment was studied also studied in vivo. using a HCC cell line, PLC8024 which is SALL4 positive, CD133+ and is both chemo- and radio-resistant (Li et al., BMC Cancer 2016, 16, 15; Ma et al., Oncogene 2008, 27: 1749-1758), for the xenograft study.

As for RQIKIWFQNRRMKWKKRRKFAKFQWI [PEN-FFW], the “anti-tumor activity benchmarked against Sorafenib” value in assay [1] (SNU398 xenograft, compared to vehicle treated groups) is “stronger anti-tumor activity than Sorafenib”. Besides, in assay [1] (SNU398 xenograft, tumor volume against time), the “effect on tumor growth” value was “significant reduced growth rate”. In assay [1] (mean, tumors resected on day 20, five i.p. injections), the tumor weight was 88.34 mg and 88 mg. In assay [2], the tumor inhibitory effect result is “minimal tumor inhibitory effect”.
